Results on two compounds are retold here after patent US20240352046A1, “ECTONUCLEOTIDE PYROPHOSPHATASE-PHOSPHODIESTERASE-1 (ENPP1) INHIBITORS AND USES THEREOF” (1cBio, Inc., priority 2020, published 2024).

Like-named read-outs stand apart in the source and are kept apart here.

Assay [1] deals with ENPP-1 (Ectonucleotide Pyrophosphatase/Phosphodiesterase 1) (Homo sapiens (Human), UniProt P22413). Description: ENPP1 inhibition assay (AMP Glo, cGAMP substrate). It counts as biochemical. The following applies: cGAMP 20 μM substrate, ENPP1 1 nM.
ENPP-1 (Ectonucleotide Pyrophosphatase/Phosphodiesterase 1), sequence (P22413 whole entry): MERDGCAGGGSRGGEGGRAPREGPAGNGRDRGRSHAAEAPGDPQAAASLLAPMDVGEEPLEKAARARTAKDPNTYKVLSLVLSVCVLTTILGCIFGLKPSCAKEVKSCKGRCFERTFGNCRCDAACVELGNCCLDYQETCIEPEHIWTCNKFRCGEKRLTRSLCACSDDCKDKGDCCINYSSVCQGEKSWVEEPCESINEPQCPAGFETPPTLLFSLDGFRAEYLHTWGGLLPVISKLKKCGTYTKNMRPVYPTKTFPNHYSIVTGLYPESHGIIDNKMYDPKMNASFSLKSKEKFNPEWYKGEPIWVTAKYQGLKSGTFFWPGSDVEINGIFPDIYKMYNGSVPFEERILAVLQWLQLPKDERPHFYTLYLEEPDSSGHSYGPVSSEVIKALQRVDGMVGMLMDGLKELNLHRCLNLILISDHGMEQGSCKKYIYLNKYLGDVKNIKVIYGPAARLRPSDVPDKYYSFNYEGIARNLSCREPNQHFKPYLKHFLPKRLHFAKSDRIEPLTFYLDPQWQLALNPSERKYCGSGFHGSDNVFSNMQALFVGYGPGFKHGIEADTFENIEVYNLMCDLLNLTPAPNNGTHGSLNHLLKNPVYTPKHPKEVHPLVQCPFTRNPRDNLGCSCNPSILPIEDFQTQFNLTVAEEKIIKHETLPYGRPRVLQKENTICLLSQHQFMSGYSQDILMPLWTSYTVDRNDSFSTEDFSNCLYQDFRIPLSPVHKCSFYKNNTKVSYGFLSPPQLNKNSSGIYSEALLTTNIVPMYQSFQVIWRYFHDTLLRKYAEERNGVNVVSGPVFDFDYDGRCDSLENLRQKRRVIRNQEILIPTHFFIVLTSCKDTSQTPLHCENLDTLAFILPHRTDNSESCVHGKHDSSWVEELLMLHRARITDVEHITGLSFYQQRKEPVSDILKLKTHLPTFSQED
In assay [2] the test system is IP-10 release in differentiated THP-1 cells. Put plainly: IP-10 cytokine release assay in THP-1 cell lines. Type of assay: cell-based, Human. The following applies: for EC50: Homo sapiens, IP-10 release over cGAMP induced release; for Percent release IP-10 (Absolute): differentiated THP-1. Here is the method: Percent release of Interferon gamma-induced protein 10 (IP-10) was determined in acute monocytic leukemia (THP-1; ATCC® TIB-202™) cell line. THP-1 cells (0.2×10^6 cells/well) were differentiated using phorbol 12-myristate 13-acetate (PMA, 10 nM (final concentration); Cat #P8139, Sigma) and incubated for 24 h at 37° C., 5% CO2 in an incubator (cell culture conditions) prior to treating with serial dilutions of compounds (3 fold, 6 point dose response starting at 10 μM). After treatment with the compounds cells were further incubated for 2 h under cell culture conditions and then exposed to 2′,3′-cGAMP (c-GAMP, 1 μM (final concentration); Cat #SML 1229, Sigma). Differentiated THP-1 cells were further cultured for 24 h after which the supernatant was harvested, and ELISA was performed as per the manufacturer's protocol (BD optEIA Human IP-10 ELISA Set; Cat #550926 & 550534, BD Biosciences). Plates were read in Biotek plate reader by measuring absorbance at 450 nm.
The release of absolute IP-10 in differentiated THP-1 by compounds in the presence of cGAMP was quantified with reference to standard after subtracting blank (negative) reading from the test readings. The absolute release of IP-10 in the presence of cGAMP (1 μM) is given in the bar-graph (FIG.-1) and in the table-B2a.
The release of IP-10 in differentiated THP-1 by compounds over cGAMP induced release at four different concentrations of cGAMP (1, 5, 10 & 30 μM) was quantified with reference to standard by normalizing the blank (negative) subtracted test readings from average of cGAMP activated cells at that particular concentration. The EC50's was calculated by fitting the curve to the “four-parameter variable slope logistic model” using Prism Graph Pad.

Assay [3] has as its system IFN-β release in differentiated THP-1 cells. Description: IFN-β cytokine release assay in THP-1. The following applies: Homo sapiens, read-out: EC50 (μM) @ 1 μM of cGAMP; IFN-β release over cGAMP induced release, THP-1, 1 μM cGAMP. It counts as cell-based. As to the method: Percent release of Interferon Beta (IFN-03) was determined in acute monocytic leukemia (THP-1; ATCC® TIB-202™) cell line. THP-1 cells (0.3×10^6 cells/well) were differentiated using phorbol 12-myristate 13-acetate (PMA, 50 ng/mL; Cat #P8139, Sigma) and incubated for 24 h at 37° C., 5% CO2 in an incubator (cell culture conditions) prior to treating with serial dilutions of compounds (3 fold, 5 point dose response starting at […]). After treatment with the compounds cells were further incubated for 2 h under cell culture conditions and then exposed to 2′,3′-cGAMP (c-GAMP, 1 μM; Cat #SML 1229, Sigma). Differentiated THP-1 cells were further cultured for 6 h after which the supernatant was harvested, and ELISA was performed as per the manufacturer's protocol (Human IFN-beta Quantikine ELISA Kit; Cat #DIFNB0, R&D systems). Plates were read in Biotek plate reader by measuring absorbance at 450 nm.

Assay [4] relates to IFN-β release in mouse splenocytes. Description: IFN-β in mouse splenocyte assay. It counts as cell-based, Balb/c mice. The following applies: activated Balb/c splenocytes, cGAMP 1 μM, 24 hr. Here is the method: Percent release of Interferon Beta (IFN-03) is determined in mouse splenocytes isolated from Balb/c mice. Mouse splenocytes ([…] cells/well) were activated with Anti-mouse CD3e (3 μg/mil, coated overnight at 4° C.; Cat #14-0032-82, eBioscience) and then incubated with Anti-mouse CD28 (3 μg/ml soluble; Cat #16-0289-81, eBiosciences) for 24 h at 37° C., 5% CO2 in an incubator (cell culture conditions) prior to treating them with serial dilutions of compounds (3 fold, 6 point dose response starting at 30 μM). After treatment with the compounds cells are further incubated for 2 h under cell culture conditions and then treated with 2′,3′-cGAMP (c-GAMP, 1 μM; Cat #SML 1229, Sigma). Splenocytes were further incubated under cell culture conditions for 24 hr after which the supernatant was harvested, and ELISA was performed as per the manufacturer's protocol (mIFN-β kit; Cat #MIFNB0 & DY008, R&D Systems). Plates were read in Biotek plate reader by measuring absorbance at 450 nm.

The test system of assay [5] is IP-10 release in mouse splenocytes. Put plainly: IP-10 in mouse splenocyte assay. The following applies: activated Balb/c splenocytes, cGAMP 1 μM, 48 hr. It counts as cell-based, Balb/c mice. As to the method: Percent release of Interferon gamma-induced protein 10 (IP-10) was determined in mouse splenocytes isolated from Balb/c mice. Mouse splenocytes (2.5*10^5 cells/well) were activated with Anti-mouse CD3e (3 μg/ml, coated overnight at 4° C.; Cat #14-0032-82, eBioscience) and then incubated with Anti-mouse CD28 (3 μg/ml soluble; Cat #16-0289-81, eBiosciences) for 24 h at 37° C., 5% CO2 in an incubator (cell culture conditions) prior to treating them with serial dilutions of compounds (3 fold, 6 point dose response starting at 30 μM). After treatment with the compounds cells were further incubated for 2 h under cell culture conditions and then treated with 2′,3′-cGAMP (c-GAMP, 1 μM; Cat #SML 1229, Sigma). Splenocytes were further incubated under cell culture conditions for 48 hr after which the supernatant was harvested, and ELISA was performed as per the manufacturer's protocol (mIP-10 kit; Cat #DY466-05 & DY008, R&D Systems). Plates were read in Biotek plate reader by measuring absorbance at 450 nm.

The mark [6] stands for this setting: read-out: EC50 (μM)@ 1 μM of cGAMP, THP-1, 1 μM cGAMP.

For orientation: IC50 means the concentration that gives 50% inhibition. A high value points to a need for much substance. The EC50 is the concentration needed to bring the measured effect to its halfway point. As for `COc1cc2ncnc(N3CC(CCNS(N)(=O)=O)C3)c2cc1OC` [Compound 1.1, (2-(1-(6,7-dimethoxyquinazolin-4-yl)azetidin-3-yl)ethyl)aminisulfonamide], the concentration for half-maximal inhibition (IC50) in assay [1] came to 0.008 µM; in assay [4], 3090 nM; in assay [5] it was 1720 nM. For the same compound, the EC50 in assay [2] (setting [6]) is 0.308 µM; in assay [2] (read-out: EC50 (μM)@ 10 μM of cGAMP, THP-1, 10 μM cGAMP), 0.471 µM; in assay [2] (read-out: EC50 (μM)@ 30 μM of cGAMP, THP-1, 30 μM cGAMP), 0.624 µM; in assay [2] (THP-1, 5 μM cGAMP, read-out: EC50 (μM)@ 5 μM of cGAMP) it was less than 0.12 µM; in assay [3] it was less than 3.35 µM. Further, the “Percent release IP-10 (Absolute)” value in assay [2] (cGAMP (1 μM) + compound 0.37 μM) is 8.9%; in assay [2] (cGAMP (1 μM) + compound 1.11 μM), 11.4%; in assay [2] (cGAMP (1 μM) + compound 3.33 μM), 13.1%; in assay [2] (cGAMP (1 μM) + compound 10 μM), 18.3%; in assay [2] (cGAMP (1 μM) + compound […]), 7.0%.

With `Cc1cc(Cl)n2ncnc(N3CC4(CC(N(C)S(N)(=O)=O)C4)C3)c12` [Compound 1.76, N-[2-(7-chloro-5-methylpyrrolo[2,1-f][1,2,4]triazin-4-yl)-2-azaspiro[3.3]hept-6-yl]-N-methylsulfuric diamide], the values for the IC50 in assay [1], in assay [4] and in assay [5] were 0.084 µM, 3260 nM and 1780 nM, respectively. In addition, the figures for the EC50 in assay [2] (setting [6]) and in assay [3] were 0.071 µM and less than 0.12 µM, respectively.
